# Tests used:
# Type in all cases: cell-based, human
# [1] = tested on: HepG2 stable cells over-expressing WT PCSK9(+V5); assay: MTT toxicity assay; settings: 33.3 μM or less; 24 h
# Method: HepG2 stable cells over-expressing hPCSK9(+V5) were seeded in complete DMEM (high glucose+sodium pyruvate) (Wisent)+10% FBS media in 96-well plates (Greiner BioOne) at a density of 1×10^5 cells/well (100 μl) and incubated for 20 hours. Cells were rinsed once with 100 ul/well of serum free DMEM media, followed by addition of 100 μl/well of DMEM (high glucose+sodium pyruvate) (Wisent)+0.07% BSA (Sigma-Aldrich) media containing compound at various concentrations (11, 33, 100 μM) or DMSO control (0.4% final) followed by overnight (24 hours) incubation. The MTT assay (Promega) consisted of addition of 20 μl/well MTT reagent and incubation for 45 minutes at 37° C., following the manufacturer's instructions. Absorbance was recorded at 490 nm and corrected for background due to nonspecific absorbance (690 nm).
# For the MTT toxicity assay, HepG2 stable cells over-expressing WT PCSK9(+V5) were seeded in 96-well plates (Greiner BioOne) and incubated for 20 hours. Following a brief wash, cells were incubated overnight (24 hours) in the presence of increasing concentrations (11, 33, 100 μM) of compounds or in the presence of DMSO (control). The MTT assay (Promega) consisted of addition of 20 μl/well MTT reagent and incubation for 45 minutes at 37° C., following the manufacturer's instructions. Absorbance was recorded at 490 nm and corrected for background due to nonspecific absorbance (690 nm). Compounds with a low toxicity at 33.3 μM or less were selected as exemplified in FIG. 3 for compounds 19, 22a, 23, 4 and 17.
# [2] = tested on: cell surface LDLR activity; assay: Dil-LDL uptake assay in HepG2 naïve cells; settings: 33.3 μM; HepG2 naïve cells
# Method: HepG2 naive cells and HEK293 naive cells were plated in 96-well plates (CellBind black plate with clear bottom (Corning; Cat #3340)) at a density of 25,000 cells/well, in complete media (DMEM high glucose (+sodium pyruvate for HepG2) (Wisent)+10% FBS). After 20 hours, cells were washed for 30 min with serum free DMEM media (100 μl/well), the wash media was removed and replaced with 100 μl/well of incubation media (DMEM high glucose (+sodium pyruvate for HepG2) (Wisent)+0.07% BSA (Sigma-Aldrich)) containing compound at various concentrations ([…]) or DMSO control (0.4% final). Each condition was prepared in triplicates. After 6 hours incubation at 37° C., Dil-LDL (Biomedical Technologies (Cat #BT-904)) was added to the cell media (5 μl) at 5 μg/ml final concentration, and cells returned to tissue culture incubator for another 18 hours (a total of 24 hours incubation with the compounds). After 2 washes (200 μl/well) with ice-cold D-PBS (Wisent) and aspiration of the final wash, plates were scanned (bottom read) on a SpectraMax GeminiEM™ plate reader (Molecular Devices). For each well, raw Dil-LDL uptake was measured as the average fluorescence intensity (RFU) (ex: 520 nm/em: 575 nm, cutoff: 550 nm) of 9 readings in 3 different points in the well. Dil-LDL uptake in each well was corrected for total number of cells by performing a CyQuant™ cell assay (Invitrogen; Cat #C7026). Namely, after recording the Dil fluorescence, the plate was frozen overnight at −80° C. The next day, the plates were thawed at room temperature, the cells lysed according to the manufacturer's protocol, and the number of cells/well was determined by measuring the fluorescence (RFU) of the CyQuant green fluorescent dye bound to the cellular nucleic acids (ex: 485 nm/em: 538 nm, cutoff: 515 nm). For each condition, Dil-RFU was divided by CyQuant-RFU. Corrected dil-LDL uptake is reported as % DMSO control and was obtained from triplicate wells.
# The PCSK9 inhibitory compounds were also characterized using a Dil-LDL fluorescent uptake assay as described in Poirier et al., J. Biol. Chem. 284: 28856-28864, 2009. The method entails the fluorescence measurement of the Dil-LDL cellular incorporation via LDLR internalization (a measurement of cell surface LDLR activity) in human hepatocyte derived HuH7 or HepG2 cell lines, or human embryonic HEK293 cells, in the presence or absence of compounds.
# HepG2 naïve cells and HEK293 naïve cells were plated in 96-well plates (CellBind™ black plate with clear bottom (Corning; Cat #3340)). At 20 h post-seeding, cells were incubated in the absence (DMSO or negative control) or in the presence of different concentrations of compounds. Each condition was prepared in triplicates. After 6 hours incubation, Dil-LDL (Biomedical Technologies (Cat #BT-904)) was added to the cell media, and cells returned to tissue culture incubator for another 18 hours. Plates were scanned (bottom read) on a SpectraMax GeminiEM™ plate reader (Molecular Devices). For each well, raw Dil-LDL uptake was measured as the average fluorescence intensity (RFU) (ex: 520 nm/em: 575 nm, cutoff: 550 nm) of 9 readings in 3 different points in the well. Dil-LDL uptake in each well was corrected for total number of cells by performing a CyQuant™ cell assay (Invitrogen, Cat #C7026) according to the manufacturer's instructions. Corrected Dil-LDL uptake is reported as a % of DMSO control and was obtained from triplicate wells.
# cell-surface LDLR = assay: Immunofluorescence of cell-surface LDLR in HepG2 naïve cells; settings: 33.3 μM, 20 h, non-permeabilized cells
# Method: HepG2 naïve cells were plated on Poly-L-Lysine-coated (50 ug/ml) round microscope cover slips 1.12 mm thickness (Fisherbrand 12CIR #1) that were placed in a 24-well cell culture plate. Seeding was performed in DMEM complete media (10% FBS) and 24 hours later the media was swapped for media (+0.07% BSA) containing 33.3 μM of the different inhibitor compounds (300 μl/well). A volume of DMSO equivalent to the volume of inhibitor compound was also diluted in 0.07% BSA containing media and used as a negative control. After a 20 hour incubation period, the cells were washed 3× with PBS and then fixed for 10 min with 3.7% paraformaldehyde. Immunofluorescence of human LDLR (green labeling) was performed under non-permeabilizing conditions. After an additional 3 washes with PBS, cells were blocked for 30 min with 1% BSA, followed by overnight incubation at 4° C. with primary antibody (1:200 goat polyclonal anti-hLDLR in 1% BSA, R&D Systems). […] Immunofluorescence analyses were performed with a confocal miscroscope (Zeiss LSM-710).
# The PCSK9 inhibitory compounds were characterized by immunofluorescence for cell-surface LDLR and for human transferrin receptor, as control, in HepG2 naïve cells. Cells were plated on Poly-L-Lysine-coated (50 ug/ml) round microscope cover slips 1.12 mm thickness (Fisherbrand 12CIR #1) that were placed in a 24-well cell culture plate. […]
SMILES,toxicity in MTT assay [1],"Dil-LDL uptake (FIG. 5A, in words) [2]",LDLR at the cell surface (immunofluorescence) (cell-surface LDLR)
"COC(=O)CCC(NC(=O)[C@H](C)NC(=O)[C@H](Cc1ccccc1)NC(=O)[C@@H](NC(=O)OC)C(C)C)B(O)O (mixture of isomers) [Example 17, [(1R/S)-4-Methoxy-1-[(2S)-2-[(2S)-2-[(2S)-2-[(methoxycarbonyl)amino]-3-methylbutanamido]-3-phenylpropanamido]propanamido]-4-oxobutyl]boronic acid]",low toxicity,no measurable activity,–
"CCCCCCCCCC(=O)N[C@H](C(=O)N[C@@H](Cc1ccccc1)C(=O)NC(C)C(=O)NC(CCC(N)=O)C(C)O)C(C)C (single isomer, unassigned) [Example 22a]",low toxicity,increase in the Dil-LDL uptake,–
COC(=O)N[C@H](C(=O)N[C@@H](Cc1ccccc1)C(=O)N[C@@H](C)C(=O)NCB(O)O)C(C)C [Example 1],–,no measurable activity,–
"CC(C)[C@H](NC(=O)c1ccc(-c2ccccc2)cc1)C(=O)N[C@@H](Cc1ccccc1)C(=O)N[C@@H](C)C(=O)NCB(O)O [Example 2, {[(2S)-2-[(2S)-2-[(2S)-3-Methyl-2-[(4-phenylphenyl)formamido]butanamido]-3-phenylpropanamido]propanamido]methyl}boronic acid]",–,no measurable activity,–
"CCCCCCCCCC(=O)N[C@H](C(=O)N[C@@H](Cc1ccccc1)C(=O)N[C@@H](C)C(=O)NCB(O)O)C(C)C [Example 4, {[(2S)-2-[(2S)-2-[(2S)-2-Decanamido-3-methylbutanamido]-3-phenylpropanamido]propanamido]methyl}boronicacid]",low toxicity,–,–
"CCCCCCCCCC(=O)N[C@H](C(=O)N[C@@H](Cc1ccccc1)C(=O)N[C@@H](C)C(=O)NC(CCC(N)=O)C(O)C(F)(F)F)C(C)C (stereo partly drawn) [Example 19, N-((2S)-1-(((2S)-1-(((2S)-1-((6-Amino-1,1,1-trifluoro-2-hydroxy-6-oxohexan-3-yl)amino)-1-oxopropan-2-yl)amino)-1-oxo-3-phenylpropan-2-yl)amino)-3-methyl-1-oxobutan-2-yl)decanamide]",low toxicity,increase in the Dil-LDL uptake,increase of LDLR at the cell surface
"CCCCCCCCCC(=O)N[C@H](C(=O)N[C@@H](Cc1ccccc1)C(=O)N[C@@H](C)C(=O)NC(CCC(N)=O)C(O)CF)C(C)C (stereo partly drawn) [Example 21a, N-((2S)-1-(((2S)-1-(((2S)-1-((6-Amino-1-fluoro-2-hydroxy-6-oxohexan-3-yl)amino)-1-oxopropan-2-yl)amino)-1-oxo-3-phenylpropan-2-yl)amino)-3-methyl-1-oxobutan-2-yl)decanamide]",–,increase in the Dil-LDL uptake,–
"CC(C)[C@H](NC(=O)Cc1ccc(OC(F)(F)F)cc1)C(=O)N[C@@H](Cc1ccccc1)C(=O)N[C@@H](C)C(=O)NC(CCC(N)=O)C(O)C(F)(F)F (stereo partly drawn) [Example 23, 6,6,6-Trifluoro-5-hydroxy-4-((S)-2-((S)-2-((S)-3-methyl-2-(2-(4-(trifluoromethoxy)phenyl)acetamido)butanamido)-3-phenylpropanamido)propanamido)hexanamide]",low toxicity,increase in the Dil-LDL uptake,–

# From patent US20160031935A1, “SMALL MOLECULE MODULATORS OF PCSK9 AND METHODS OF USE THEREOF” (ADAERATA, LIMITED PARTNERSHIP, priority 2013, published 2016)
